Read-outs that look alike come from different tables or passages of the source.
Experiments:
[1] = cited from earlier work
[2] = Stability of lapatinib in QC samples, BP samples and standard solutions; format: physicochemical; conditions: for stability, deviation: low and high QC samples
Text: Data acquisition and processing were controlled with Analyst 1.5.2 software (Sciex, Framingham, USA).

[3] = Lapatinib pharmacokinetics and uptake in rat cerebrospinal fluid (CSF); format: in vivo, rats; conditions: for MRT last: read-out: MRT0-t
Description: This study was conducted on rats, which are a promising model to predict P-gp-based drug-drug interactions at the human BBB [15]. The animals were allowed to acclimate for one week before the beginning of the experiments. Adult male Wistar-strain rats (weight 470–525 g) were used in the study. The animals were maintained under standard breeding conditions with a 12/12 h light-dark cycle (lights on at 6.00 a.m., lights off at 6.00 p.m.) at constant room temperature (23 ± 2 °C), relative humidity (55 ± 10%) and ad libitum access to food and water. The experimental protocol for this study was reviewed and approved by the Local Ethics Committee. To obtain consistent data, the study was based on the required minimum number of animals and observation time. […] Three rats were used at each time point (n = 3). In total, the research was conducted on 66 animals (n = 33 in the experimental group and n = 33 in the control group).
Elacridar was freshly dissolved in a vehicle at an initial concentration of 20 mg/mL. […] A volume of 80 μL of blood was collected from each rat by cutting off a piece of its tail. The blood samples were collected into heparinized test tubes at the following time points: before treatment (time 0), 5 min, 30, min, and 1, 2, 3, 4, 6, 8, 12, and 24 h after administration of the drugs, and they were immediately centrifuged at 2880 g for 10 min at 4 °C. The anaesthetized rats (anaesthetized by intramuscular administration of 50 mg/kg ketamine and 10 mg/kg xylazine) were prepared for cisterna magna puncture. The hair over the puncture was removed and the skin was disinfected with alcohol. The animals were placed in a recumbent position with an elevated rear part of the body. The animals’ heads were slightly flexed and immobilized with the operator’s left hand. The space between the occiput rostrally and the atlas (C1) of the spinal column caudally was gently palpated with the left thumb. A 0.7 × 20 G needle with polyethylene tubing (Terumo Poland, Warsaw, Poland) was gently inserted at an approximate angle of 80–90° through the skin with the operator’s right hand into the midsagittal region. The moment that dura mater perforation was perceptible, a small amount of CSF was found in the needle tubing. To sample additional CSF, a 1 mL insulin syringe (Becton Dickinson, Warsaw, Poland) was used to collect 80–120 μL of CSF by very gentle aspiration. Only clear CSF was collected for further analysis. […] The animals’ brains were immediately dissected, washed in 0.9% NaCl and divided along the longitudinal axis. One of the brain hemispheres was again rinsed three times with 5 mL of 0.9% NaCl, weighed and homogenized with 0.9% NaCl (4 mL per 1 g of BT) in an Ultra-Turrax homogenizer (Witko, Łódź, Poland). The homogenate was then centrifuged at 4500 g for 10 min. All samples of the rat BP, CSF, and BT homogenate supernatant were stored at −80 °C until analysis.
The chromatographic analysis was conducted using a 1260 Infinity system (Agilent Technologies, Santa Clara, USA) equipped with a Kinetex® C18 column (50 × 4.6 mm, 2.6 μm, Phenomenex, Torrance, USA), which was maintained at 35 °C. The mobile phase consisted of 0.1% formic acid (v/v) in water with 5 mM ammonium formate (solvent A) and acetonitrile with 10% phase A (v/v, solvent B). The analyte and internal standard (IS, erlotinib) were eluted using a gradient run of 10 min as follows: 95% A at 0–2 min; 95%–5% A at 2–4 min; 5% A at 4–5 min; 5%–95% A at 5–6 min; 95% A at 6–10 min. The flow rate and injection volume were set at 0.7 mL/min and 10 μL, respectively. The needle was washed for 30 s in a mixture of acetonitrile, methanol, isopropanol, water, and formic acid (50:20:15:15:0.25, v/v/v/v/v).

[4] = as above; format: in vivo, rats; conditions: male, Wistar, po, 100 mg/kg, lapatinib p.o. 100 mg/kg alone, read-out: Clapatinib in CSF, single rat
[5] = design: method as in PMID 19056914; conditions: cited from earlier work
[6] = design: method as in PMID 25547867; conditions: cited from earlier work
[7] = cerebrospinal fluid, lapatinib 100 mg/kg oral + 5 mg/kg elacridar (IE+L)
[8] = cerebrospinal fluid, lapatinib 100 mg/kg oral alone (IIL)
[9] = male, Wistar, rat, cerebrospinal fluid (CSF), po, 100 mg/kg, lapatinib p.o. 100 mg/kg alone, read-out: Clapatinib in CSF, S (medium value)
[10] = male, Wistar, rat, cerebrospinal fluid (CSF), po, 100 mg/kg, lapatinib p.o. 100 mg/kg alone, read-out: Clapatinib in CSF, single rat
[11] = male, Wistar, rat, cerebrospinal fluid, oral, lapatinib 100 mg/kg + elacridar, read-out: Clapatinib in CSF, S
[12] = male, Wistar, rat, cerebrospinal fluid, oral, lapatinib 100 mg/kg + elacridar, read-out: Clapatinib in CSF, single rat
[13] = male, Wistar, rat, cerebrospinal fluid, po, 100 mg/kg, cerebrospinal fluid, lapatinib 100 mg/kg oral + 5 mg/kg elacridar (IE+L)
[14] = male, Wistar, rat, cerebrospinal fluid, po, 100 mg/kg, lapatinib 100 mg/kg oral alone (IIL)

postpreparative stability, change in the concentration ([2]; BP samples and standard solutions, 24 h and 48 h in the autosampler at 4 °C): < 15% | stability, deviation ([2]; three freeze-thaw cycles at −80 °C): < 5% | stability, deviation ([2]; three months of storage at −80 °C): < 15% | AUC0-∞ increase by elacridar ([3]; CSF): 1.5 fold | Cmax increase in IE+L vs control ([3]; CSF): 2.4 fold | Kp decrease in IL+E group vs control ([3]; CSF): 42.9% | t0.5 longer in the presence of elacridar ([3]; CSF): 2.6 times | AUC0-t elevated in IE+L ([3]; CSF, IE+L vs IIL group): 61.2% | Cmax increase with elacridar ([3]; CSF, IE+L vs IIL group): 136.4% | AUMC0-t [3, 7]: 1620.02 ng × h^2/mL | AUMC0-∞ [3, 7]: 2725.51 ng × h^2/mL | AUMC0-t [3, 8]: 1257.21 ng × h^2/mL | AUMC0-∞ [3, 8]: 1767.90 ng × h^2/mL | Kp ([3]; male, Wistar, rat, CSF / plasma, oral, 100 mg/kg, IIL group, read-out: Cmax,CSF/Cmax,BP ratio): 0.012 | Kp ([3]; male, Wistar, rat, CSF / plasma, oral, with elacridar 5 mg/kg intraperitoneally, 30 min before lapatinib, IE+L group, read-out: Cmax,CSF/Cmax,BP ratio): 0.026 | concentration at 0.25 h ([3]; male, Wistar, rat, cerebrospinal fluid (CSF), po, 100 mg/kg, lapatinib p.o. 100 mg/kg alone, 0.25 h, read-out: Clapatinib in CSF, S (medium value)): 3.73 ng/mL | concentration at 1 h [3, 9]: 38.5 ng/mL | concentration at 1 h [3, 10]: 38.5 ng/mL | concentration at 2 h [3, 9]: 10.8 ng/mL | concentration at 2 h [3, 10]: 10.8 ng/mL | concentration at 3 h [3, 9]: 12.2 ng/mL | concentration at 3 h [3, 10]: 9.49 ng/mL | concentration at 4 h [3, 9]: 13.8 ng/mL | concentration at 4 h [3, 10]: 13.8 ng/mL | concentration at 6 h [3, 9]: 26.9 ng/mL | concentration at 6 h [3, 10]: 26.9 ng/mL | concentration at 8 h [3, 9]: 24.4 ng/mL | concentration at 8 h [3, 10]: 24.4 ng/mL | concentration at 12 h [3, 9]: 7.23 ng/mL | concentration at 0.5 h ([3]; male, Wistar, rat, cerebrospinal fluid, oral, lapatinib 100 mg/kg + elacridar, 0.5 h, read-out: Clapatinib in CSF, S): 40.7 ng/mL | concentration at 1 h [3, 11]: 30 ng/mL | concentration at 2 h [3, 11]: 75.7 ng/mL | concentration at 3 h [3, 11]: 51.2 ng/mL | concentration at 3 h [3, 12]: 45.6 ng/mL | concentration at 4 h [3, 11]: 91 ng/mL | concentration at 4 h [3, 12]: 91 ng/mL | concentration at 6 h [3, 11]: 4.27 ng/mL | concentration at 6 h [3, 12]: 4.27 ng/mL | concentration at 8 h [3, 11]: 1.03 ng/mL | concentration at 8 h [3, 12]: 1.03 ng/mL | concentration at 12 h [3, 11]: 2.62 ng/mL | concentration at 12 h [3, 12]: 2.62 ng/mL | concentration at 24 h [3, 11]: 2.84 ng/mL | concentration at 24 h [3, 12]: 2.84 ng/mL | k el ([3]; male, Wistar, rat, cerebrospinal fluid, po, 100 mg/kg): 6.39e-05 s⁻¹ | AUC(0-inf) [3, 13]: 387 ng·h/mL | AUC(0-t) [3, 13]: 356 ng·h/mL | Cmax [3, 13]: 91 ng/mL | Tmax [3, 13]: 4 h | MRT last [3, 13]: 4.55 h | MRT last ([3]; male, Wistar, rat, cerebrospinal fluid, po, 100 mg/kg, cerebrospinal fluid, lapatinib 100 mg/kg oral alone (IIL)): 5.7 h | AUC(0-inf) [3, 14]: 252 ng·h/mL | AUC(0-t) [3, 14]: 221 ng·h/mL | Cmax [3, 14]: 38.5 ng/mL | Tmax [3, 14]: 1 h | Kp ([3]; male, Wistar, rat, cerebrospinal fluid, po, 100 mg/kg, read-out: Kp (tissue-to-plasma partition coefficient, AUC0-∞-tissue/AUC0-∞-plasma)): 0.007 | concentration at 0.25 h [4]: 4.47 ng/mL
SMILES: CS(=O)(=O)CCNCc1ccc(-c2ccc3ncnc(Nc4ccc(OCc5cccc(F)c5)c(Cl)c4)c3c2)o1 [lapatinib, N-{3-Chloro-4-[(3-fluorobenzyl)oxy]phenyl}-6-[5-({[2-(methylsulfonyl)ethyl]amino}methyl)-2-furyl]-4-quinazolinamine]
binds with plasma proteins [1]: 99% | Kp,BT ([5]; WT mice, 24-h intravenous administration): 0.04 | Kp,BT times greater than in WT mice ([5]; mdr1a/b(−/−)/bcrp(−/−) mice): 40 times | patients with BM responding to lapatinib therapy [6]: 2.6–6.0%
